Assay results reported in the supplement of paper PMC10307832.

What was measured:
Assay in all cases: relative viability (nuclei count vs DMSO), 5 days (fraction); higher = more cells survive
[1] = compound: C1CNCCC1C2=CC(=NN2)C3=CC=NC=C3 + CC(C)C[C@H](NC(=O)[C@H](Cc1ccccc1)NC(=O)c1cnccn1)B(O)O [Bortezomib] (partner 0.002 µM)
Outline: (§1)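 Lung cancer cell lines were pin-tool dosed in 1536-well plates on the day after seeding, with either a lone drug or a fixed anchor-drug dose plus five library-drug doses (not always all listed) in √10 steps. Nuclei were counted on 4× images after 5 days. Relative viability is the ratio of treated-well to vehicle-well nuclei counts, with each value a median of duplicate plates.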

[2] = compound: C1CNCCC1C2=CC(=NN2)C3=CC=NC=C3 + C[C@@H](Oc1cc(-c2cnn(C3CCNCC3)c2)cnc1N)c1c(Cl)ccc(F)c1Cl [Crizotinib] (partner 1 µM)
Outline: as §1

[3] = compound: C[C@@H](N)c1ccc(C(=O)Nc2ccnc3[nH]ccc23)cc1 + Nc1ncn([C@H]2C[C@H](O)[C@@H](CO)O2)c(=O)n1 [Decitabine] (partner 2 µM)
Outline: as §1

Tanzisertib + Luminespib = compound: O[C@H]1CC[C@H](Nc2ncc3nc(Nc4c(F)cc(F)cc4F)n([C@H]4CCOC4)c3n2)CC1 [Tanzisertib] + CCNC(=O)c1noc(-c2cc(C(C)C)c(O)cc2O)c1-c1ccc(CN2CCOCC2)cc1 [Luminespib] (partner 0.01 µM)
Outline: as §1

Row | Cell Line | relative viability ([1]; first compound 0.08 µM) | relative viability ([1]; first compound 0.8 µM) | relative viability ([1]; first compound 2.53 µM) | relative viability ([1]; first compound 8 µM) | relative viability ([2]; first compound 0.08 µM) | relative viability ([2]; first compound 0.8 µM) | relative viability ([2]; first compound 2.53 µM) | relative viability ([2]; first compound 8 µM) | relative viability ([3]; first compound 0.04 µM) | relative viability ([3]; first compound 0.1265 µM) | relative viability ([3]; first compound 0.4 µM) | relative viability ([3]; first compound 1.265 µM) | relative viability ([3]; first compound 4 µM) | relative viability (Tanzisertib + Luminespib; first compound 0.08 µM) | relative viability (Tanzisertib + Luminespib; first compound 0.253 µM) | relative viability (Tanzisertib + Luminespib; first compound 0.8 µM) | relative viability (Tanzisertib + Luminespib; first compound 2.53 µM) | relative viability (Tanzisertib + Luminespib; first compound 8 µM)
1 | LXF-289 | 1.05 | 1.14 | 0.968 | 0.962 | 0.842 | 0.88 | 0.801 | 0.837 | 0.406 | 0.362 | 0.362 | 0.373 | 0.331 | 0.66 | 0.621 | 0.684 | 0.675 | 0.643
2 | HCC-827 | 1 | 1.02 | 1.06 | 1.01 | 0.979 | 0.932 | 1.01 | 0.883 | – | 0.33 | 0.379 | 0.227 | 0.331 | 0.668 | 0.594 | 0.642 | 0.588 | 0.259
3 | EMC-BAC-2 | 0.978 | 1.19 | 1.2 | 1.03 | 0.705 | 0.772 | 0.751 | 0.793 | 1 | 0.968 | 1.11 | 1.04 | 0.903 | 1.24 | 1.07 | 1.23 | 1.16 | 1.14
4 | NCI-H520 | 0.365 | 0.558 | 0.559 | 0.573 | 0.742 | 0.921 | 0.727 | 0.736 | 0.579 | 0.552 | 0.61 | 0.617 | 0.569 | 0.255 | 0.253 | 0.218 | 0.227 | 0.202
5 | NCI-H1755 | 0.991 | 0.943 | 1.04 | 0.932 | 0.967 | 0.836 | 0.887 | 0.776 | 0.728 | 0.728 | 0.712 | 0.76 | 0.684 | 0.415 | 0.51 | 0.473 | 0.374 | 0.547
6 | NCI-H1993 | 1.02 | 0.999 | 1.21 | 1.34 | 0.867 | 0.876 | 0.767 | 0.896 | 0.649 | 0.603 | – | 0.636 | 0.69 | 0.879 | 0.783 | 0.915 | 0.714 | 1
7 | NCI-H23 | 0.729 | 0.866 | 1.1 | 1.24 | 0.431 | 0.499 | 0.499 | 0.518 | 0.296 | 0.295 | 0.363 | – | 0.301 | 0.262 | 0.227 | 0.203 | 0.228 | 0.199
8 | SW 900 | – | – | – | – | – | – | – | – | 0.412 | 0.43 | 0.43 | 0.509 | 0.421 | 0.169 | 0.188 | 0.151 | 0.207 | 0.168
9 | NCI-H1437 | 0.495 | 0.607 | 0.552 | 0.462 | 0.866 | 0.967 | 0.929 | 0.883 | 0.526 | 0.572 | 0.541 | 0.602 | 0.591 | 1.18 | 1.14 | 1.04 | 1.27 | 1.21
